Measurements: PubChem BioAssay (NCI)
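Compound exposure: 48 hours, 5 concentrations, 96-well plates. GI50: concentration for 50% inhibition of growth. TGI: total growth inhibition.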

How the values were obtained:
Experiment in all cases: NCI anticancer screen, dose series, 48 h; in the data active = GI50 below about 0.43 µM; inactive = the rest
NCI-H226 lung = tested on: NCI-H226 lung
SK-OV-3 ovarian = tested on: SK-OV-3 ovarian
UACC-257 melanoma = tested on: UACC-257 melanoma
EKVX NSCLC = tested on: EKVX NSCLC
OVCAR-4 ovarian = tested on: OVCAR-4 ovarian
OVCAR-3 ovarian = tested on: OVCAR-3 ovarian
A549 NSCLC = tested on: A549 NSCLC
NCI-H522 lung = tested on: NCI-H522 lung
HT29 colon = tested on: HT29 colon
LOX IMVI melanoma = tested on: LOX IMVI melanoma

CN1CC[C@@H](c2c(O)cc(O)c3c(=O)cc(-c4ccccc4Cl)oc23)[C@@H]1CO
6.66 µM: TGI (HT29 colon)
2.76 µM: TGI (NCI-H522 lung)
0.878 µM: TGI (NCI-H226 lung)
> 8.02 µM: TGI (EKVX NSCLC)
1.36 µM: TGI (UACC-257 melanoma)
2.17 µM: TGI (OVCAR-3 ovarian)
> 9.29 µM: TGI (OVCAR-4 ovarian)
> 10 µM: TGI (A549 NSCLC)
9.91 µM: TGI (SK-OV-3 ovarian)
active: GI50 (NCI-H226 lung) 0.239 µM | GI50 (UACC-257 melanoma) 0.296 µM | GI50 (EKVX NSCLC) 0.372 µM | GI50 (OVCAR-3 ovarian) 0.278 µM | GI50 (A549 NSCLC) 0.368 µM | GI50 (NCI-H522 lung) 0.357 µM
inactive: GI50 (SK-OV-3 ovarian) 1.4 µM | GI50 (OVCAR-4 ovarian) 0.709 µM | GI50 (HT29 colon) 0.442 µM

C=C1C(=O)OC2/C=C(/C)C(OC(C)=O)CC(O)/C(C)=C\C(OC(=O)/C(C)=C\C)C12 (stereo unspecified)
> 100 µM: TGI (NCI-H226 lung) | TGI (SK-OV-3 ovarian) | TGI (UACC-257 melanoma) | TGI (EKVX NSCLC) | TGI (OVCAR-4 ovarian) | TGI (OVCAR-3 ovarian) | TGI (A549 NSCLC) | TGI (LOX IMVI melanoma) | TGI (HT29 colon)
22.7 µM: TGI (NCI-H522 lung)

CCc1cccc(C)c1NC(=O)C(=O)Cc1nc2ccccc2s1
> 100 µM: TGI (NCI-H226 lung) | TGI (SK-OV-3 ovarian) | TGI (UACC-257 melanoma) | TGI (EKVX NSCLC) | TGI (OVCAR-4 ovarian) | TGI (OVCAR-3 ovarian) | TGI (A549 NSCLC) | TGI (NCI-H522 lung) | TGI (HT29 colon)

COc1ccc(C(=O)c2cc3c(N)c(C(=O)Nc4cccc5ccccc45)sc3nc2C)cc1
> 50 µM: TGI (NCI-H226 lung) | TGI (SK-OV-3 ovarian) | TGI (UACC-257 melanoma) | TGI (EKVX NSCLC) | TGI (OVCAR-4 ovarian) | TGI (OVCAR-3 ovarian) | TGI (A549 NSCLC) | TGI (LOX IMVI melanoma) | TGI (NCI-H522 lung) | TGI (HT29 colon)
inactive: GI50 (SK-OV-3 ovarian) 0.429 µM | GI50 (UACC-257 melanoma) > 50 µM | GI50 (OVCAR-4 ovarian) 1.15 µM
active: GI50 (NCI-H226 lung) 0.332 µM | GI50 (EKVX NSCLC) 0.294 µM | GI50 (OVCAR-3 ovarian) 0.156 µM | GI50 (A549 NSCLC) 0.266 µM | GI50 (LOX IMVI melanoma) 0.287 µM | GI50 (NCI-H522 lung) 0.226 µM | GI50 (HT29 colon) 0.183 µM

N#Cc1c(-c2ccc(Cl)cc2)c2c(n(C3OC(CO)C(O)C(O)C3O)c1=S)CCC2 (stereo unspecified)
74.3 µM: TGI (OVCAR-3 ovarian)
34.3 µM: TGI (LOX IMVI melanoma)
> 100 µM: TGI (SK-OV-3 ovarian) | TGI (OVCAR-4 ovarian) | TGI (A549 NSCLC) | TGI (HT29 colon)
87.2 µM: TGI (UACC-257 melanoma)

Cc1ccc(CNc2c3ccccc3nc3cc(NC(=O)CCN4CCCC4)ccc23)cc1
1.95 µM: TGI (NCI-H522 lung)
inactive: GI50 (NCI-H226 lung) 1.02 µM | GI50 (SK-OV-3 ovarian) 1.1 µM | GI50 (UACC-257 melanoma) 1.69 µM | GI50 (EKVX NSCLC) 0.862 µM | GI50 (OVCAR-4 ovarian) 0.569 µM | GI50 (OVCAR-3 ovarian) 0.768 µM | GI50 (LOX IMVI melanoma) 0.515 µM | GI50 (NCI-H522 lung) 0.509 µM
2.02 µM: TGI (OVCAR-4 ovarian)
3.27 µM: TGI (UACC-257 melanoma)
2.79 µM: TGI (SK-OV-3 ovarian)
2.25 µM: TGI (EKVX NSCLC)
2.46 µM: TGI (NCI-H226 lung)
1.76 µM: TGI (LOX IMVI melanoma)
2.11 µM: TGI (OVCAR-3 ovarian)

Nc1[nH]nc2nc(-c3cccs3)cc(C(F)(F)F)c12
> 25 µM: TGI (NCI-H226 lung) | TGI (SK-OV-3 ovarian) | TGI (UACC-257 melanoma) | TGI (OVCAR-4 ovarian) | TGI (OVCAR-3 ovarian) | TGI (A549 NSCLC) | TGI (LOX IMVI melanoma) | TGI (NCI-H522 lung) | TGI (HT29 colon)
inactive: GI50 (NCI-H226 lung) > 23.2 µM | GI50 (SK-OV-3 ovarian) > 25 µM | GI50 (UACC-257 melanoma) > 25 µM | GI50 (OVCAR-4 ovarian) > 25 µM | GI50 (OVCAR-3 ovarian) > 25 µM | GI50 (A549 NSCLC) 24.3 µM | GI50 (LOX IMVI melanoma) > 25 µM | GI50 (NCI-H522 lung) > 13.9 µM | GI50 (HT29 colon) > 25 µM

COc1ccc(OC)c(NC(=O)CCC/C(CC(=O)c2ccc(O)c(OC)c2)=N\Nc2ccc([N+](=O)[O-])cc2)c1
> 100 µM: TGI (NCI-H226 lung) | TGI (SK-OV-3 ovarian) | TGI (UACC-257 melanoma) | TGI (EKVX NSCLC) | TGI (OVCAR-4 ovarian) | TGI (OVCAR-3 ovarian) | TGI (A549 NSCLC) | TGI (LOX IMVI melanoma) | TGI (NCI-H522 lung) | TGI (HT29 colon)

O=S1(=O)OCCOS(=O)(=O)C1Cc1ccccc1
44.9 µM: TGI (OVCAR-3 ovarian)
> 100 µM: TGI (NCI-H226 lung) | TGI (SK-OV-3 ovarian) | TGI (UACC-257 melanoma) | TGI (EKVX NSCLC) | TGI (OVCAR-4 ovarian) | TGI (A549 NSCLC) | TGI (LOX IMVI melanoma) | TGI (NCI-H522 lung) | TGI (HT29 colon)

CN(C(=O)c1ccco1)C(=S)N1CCN(c2ccccc2)CC1
> 100 µM: TGI (NCI-H226 lung) | TGI (SK-OV-3 ovarian) | TGI (UACC-257 melanoma) | TGI (OVCAR-4 ovarian) | TGI (OVCAR-3 ovarian) | TGI (A549 NSCLC) | TGI (LOX IMVI melanoma) | TGI (NCI-H522 lung) | TGI (HT29 colon)

NC(=O)c1c(NC(=O)c2ccc3c(c2)OCO3)sc2c1CCC(=O)C2
inactive: GI50 (OVCAR-4 ovarian) 0.494 µM | GI50 (A549 NSCLC) 3.44 µM | GI50 (LOX IMVI melanoma) 1.15 µM
> 100 µM: TGI (A549 NSCLC) | TGI (LOX IMVI melanoma)
2.29 µM: TGI (NCI-H522 lung)
1.79 µM: TGI (OVCAR-4 ovarian)
active: GI50 (NCI-H522 lung) 0.355 µM

N#CC(c1nc2ccccc2nc1Cl)S(=O)(=O)c1ccccc1 (stereo unspecified)
> 100 µM: TGI (NCI-H226 lung) | TGI (UACC-257 melanoma) | TGI (EKVX NSCLC) | TGI (OVCAR-4 ovarian) | TGI (OVCAR-3 ovarian) | TGI (A549 NSCLC) | TGI (LOX IMVI melanoma) | TGI (NCI-H522 lung)

COC(=O)C1=C(c2cc(OC)c(OC)c(OC)c2)OC(c2ccc(OC)c(OC)c2)C1 (stereo unspecified)
> 100 µM: TGI (NCI-H226 lung) | TGI (SK-OV-3 ovarian) | TGI (UACC-257 melanoma) | TGI (EKVX NSCLC) | TGI (OVCAR-4 ovarian) | TGI (OVCAR-3 ovarian) | TGI (A549 NSCLC) | TGI (LOX IMVI melanoma) | TGI (HT29 colon)

COc1ccc2c(c1)C(=O)c1c-2c(N(C)C)nc2ccccc12
inactive: GI50 (NCI-H226 lung) > 100 µM | GI50 (SK-OV-3 ovarian) > 100 µM | GI50 (UACC-257 melanoma) > 100 µM | GI50 (EKVX NSCLC) > 100 µM | GI50 (OVCAR-4 ovarian) 90.2 µM | GI50 (A549 NSCLC) > 100 µM | GI50 (LOX IMVI melanoma) > 100 µM | GI50 (NCI-H522 lung) > 100 µM | GI50 (HT29 colon) > 100 µM
> 100 µM: TGI (NCI-H226 lung) | TGI (SK-OV-3 ovarian) | TGI (UACC-257 melanoma) | TGI (EKVX NSCLC) | TGI (OVCAR-4 ovarian) | TGI (A549 NSCLC) | TGI (LOX IMVI melanoma) | TGI (NCI-H522 lung) | TGI (HT29 colon)

C/C(CC(=O)Nc1ccc(Cl)cc1)=N\NC(N)=S
> 100 µM: TGI (SK-OV-3 ovarian) | TGI (UACC-257 melanoma) | TGI (EKVX NSCLC) | TGI (OVCAR-3 ovarian) | TGI (A549 NSCLC) | TGI (LOX IMVI melanoma) | TGI (NCI-H522 lung) | TGI (HT29 colon)

O=[N+]([O-])c1cccc([As]=[As]c2cccc([N+](=O)[O-])c2)c1 (stereo unspecified)
0.308 µM: TGI (OVCAR-4 ovarian)
0.329 µM: TGI (HT29 colon)
0.351 µM: TGI (A549 NSCLC)
0.252 µM: TGI (UACC-257 melanoma)
0.16 µM: TGI (OVCAR-3 ovarian)
active: GI50 (NCI-H226 lung) 0.143 µM | GI50 (SK-OV-3 ovarian) 0.177 µM | GI50 (UACC-257 melanoma) 0.122 µM | GI50 (OVCAR-4 ovarian) 0.0921 µM | GI50 (OVCAR-3 ovarian) 0.0499 µM | GI50 (A549 NSCLC) 0.178 µM | GI50 (LOX IMVI melanoma) 0.0452 µM | GI50 (NCI-H522 lung) 0.0154 µM | GI50 (HT29 colon) 0.159 µM
0.146 µM: TGI (LOX IMVI melanoma)
0.0304 µM: TGI (NCI-H522 lung)
0.287 µM: TGI (NCI-H226 lung)
0.317 µM: TGI (SK-OV-3 ovarian)

O=C(Nc1cccc(NC(=O)Nc2cc(C(F)(F)F)ccc2Cl)c1)Nc1cc(C(F)(F)F)ccc1Cl
41.4 µM: TGI (UACC-257 melanoma)
7.78 µM: TGI (NCI-H522 lung)
15.8 µM: TGI (A549 NSCLC)
inactive: GI50 (NCI-H226 lung) 1.85 µM | GI50 (SK-OV-3 ovarian) 2.9 µM | GI50 (UACC-257 melanoma) 4.29 µM | GI50 (OVCAR-4 ovarian) 0.746 µM | GI50 (A549 NSCLC) 1.95 µM | GI50 (LOX IMVI melanoma) 3.47 µM | GI50 (NCI-H522 lung) 1.21 µM | GI50 (HT29 colon) 4.26 µM
11.3 µM: TGI (SK-OV-3 ovarian)
9.28 µM: TGI (NCI-H226 lung)
3.61 µM: TGI (OVCAR-4 ovarian)
66.1 µM: TGI (HT29 colon)
15.4 µM: TGI (LOX IMVI melanoma)

CCOC(=O)NC(=O)c1cn(CCN2CCN(c3ncnc4nc[nH]c34)CC2)c(=O)[nH]c1=O
> 100 µM: TGI (NCI-H226 lung) | TGI (SK-OV-3 ovarian) | TGI (UACC-257 melanoma) | TGI (EKVX NSCLC) | TGI (OVCAR-3 ovarian) | TGI (A549 NSCLC) | TGI (LOX IMVI melanoma) | TGI (NCI-H522 lung) | TGI (HT29 colon)
